Patent publication US5032577A, “Peptidylaminodiols” (Abbott Laboratories, priority 1987, dated 1991)
Like-named read-outs stand apart in the source and are kept apart here.

Target: T1, human renal renin (Homo sapiens, UniProt P00797)
T1 construct: human renal renin, free from acid proteolytic activity; from tissue
T1 sequence (P00797 67-406): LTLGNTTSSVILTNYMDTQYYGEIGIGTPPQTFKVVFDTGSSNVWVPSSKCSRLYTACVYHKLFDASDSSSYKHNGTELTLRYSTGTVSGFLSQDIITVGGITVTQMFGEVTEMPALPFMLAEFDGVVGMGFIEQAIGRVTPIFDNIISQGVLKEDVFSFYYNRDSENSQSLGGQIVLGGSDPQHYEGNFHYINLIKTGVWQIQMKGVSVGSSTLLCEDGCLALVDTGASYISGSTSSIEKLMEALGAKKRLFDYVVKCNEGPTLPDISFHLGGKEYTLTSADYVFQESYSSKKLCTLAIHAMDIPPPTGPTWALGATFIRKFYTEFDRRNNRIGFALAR
Assay: Inhibition of human renal renin in vitro; angiotensin I formed measured by radioimmunoassay
Format: biochemical

[1] = human renal renin free from acid proteolytic activity, renin substrate human angiotensinogen, 37° C., pH 6.0

Row | Structure (SMILES) | IC50 [1] | IC50
1 | CC(C)C[C@H](O)[C@H](O)[C@H](CC1CCCCC1)NC(=O)[C@H](Cc1ccccc1)NC(=O)[C@H](Cc1ccccc1)NC(=O)OC(C)(C)C [Example 34, Boc-Phe-Phe Amide of 2(S)-Amino-l-cyclohexyl-3(R),4(S)-dihYdroxy-6-methYlheptane] | 1.5 nM | –
2 | CC(C)C[C@H](O)[C@@H](O)[C@H](CC1CCCCC1)NC(=O)[C@H](Cc1c[nH]cn1)NC(=O)[C@H](Cc1ccccc1)NC(=O)OC(C)(C)C [Example 16, Boc-Phe-His Amide of 2(S)-Amino-l-cyclohexyl-3(S),4(S)-dihydroxy-6-methylheptane] | 70 nM | –
3 | CC(C)C[C@H](O)[C@H](O)[C@H](CC1CCCCC1)NC(=O)[C@H](Cc1c[nH]cn1)NC(=O)[C@H](CCc1ccccc1)NC(=O)C(C)C [Example 108, Isobutyryl-Homo-Phe-His Amide of 2(S)-Amino-l-cyclohexyl-3(R),4(S)-dihydroxy-6-methylheptane] | – | 0.55 nM
4 | CC(C)C[C@H](NC(=O)[C@H](Cc1ccccc1)NC(=O)OCC(O)CO)C(=O)N[C@@H](CC1CCCCC1)[C@@H](O)[C@@H](O)CC(C)C (stereo partly drawn) [Example 97, 2(R,S),3-Dihydroxypropyloxycarbonyl-Phe-Leu Amide of 2(S) -Amino-1-cyclohexyl-3(R),4(S)-dihydroxy-6-methylheptane] | – | 0.3 nM
5 | CC(=O)O[C@@H](Cc1ccccc1)C(=O)N[C@@H](Cc1c[nH]cn1)C(=O)N[C@@H](CC1CCCCC1)[C@@H](O)[C@@H](O)CC(C)C [Example 24, Ac-Pl-His Amide of 2(S)-Amino-l-cyclohexyl-3(R),4(S)-dihydroxy-6-methylheptane] | – | 2 nM
6 | CC(C)C[C@H](NC(=O)[C@H](Cc1ccccc1)NC(=O)OCCCOC(=O)CN)C(=O)N[C@@H](CC1CCCCC1)[C@@H](O)[C@@H](O)CC(C)C [Example 93, H-Gly-Ester of the Resultant Compound of Example 91 (at 3-Hydroxypropyloxy Group)] | – | 0.55 nM
7 | CC(C)(C)OC(=O)N[C@@H](Cc1ccccc1)C(=O)N[C@@H](Cc1c[nH]cn1)C(=O)N[C@@H](CC1CCCCC1)[C@@H](O)CO [Example 6, Boc-Phe-His Amides of 3(S)-Amino-4-cyclohexyl-1,2(R)-dihydroxybutane] | 50 nM | –
8 | CC(C)C[C@H](O)[C@H](O)[C@H](CC1CCCCC1)NC(=O)[C@H](Cc1c[nH]cn1)NC(=O)[C@H](Cc1ccccc1)NC(=O)OC(C)(C)C [Example 15, Boc-Phe-His Amide of 2(S)-Amino-l-cyclohexyl-3(R),4(S)-dihydroxy-6-methylheptane] | 1.5 nM | –
9 | CC(C)C[C@H](O)[C@H](O)[C@H](CC1CCCCC1)NC(=O)[C@H](Cc1c[nH]cn1)NC(=O)[C@H](Cc1ccccc1)NC(=O)CCNC(=O)OCc1ccccc1 [Example 61, Cbz-β-Ala-Phe-His Amide of 2(S)-Amino-l-cyclohexyl-3(R),4(S)-dihydroxy-6-methylheptane] | – | 0.55 nM
10 | CC(C)C[C@H](O)[C@H](O)[C@H](CC1CCCCC1)NC(=O)[C@H](Cc1c[nH]cn1)NC(=O)CCc1ccccc1 [Example 28, Pp-His Amide of 2(S)-Amino-l-cyclohexyl-3(R),4(S)-dihydroxy-6-methylheptane] | – | 80 nM
11 | CC(C)C[C@H](NC(=O)[C@H](Cc1ccccc1)NC(=O)Cc1c[nH]cn1)C(=O)N[C@@H](CC1CCCCC1)[C@@H](O)[C@@H](O)CC(C)C [Example 88, (Imidazol-4-yl-acetyl)-Phe-Leu Amide of 2(S)-Amino-1-cyclohexyl-3(R),4(S)-dihydroxy-6-methylheptane] | – | 0.6 nM
12 | CC(C)C[C@H](O)[C@H](O)[C@H](CC1CCCCC1)NC(=O)[C@H](Cc1c[nH]cn1)NC(=O)[C@H](Cc1ccccc1)NC(=O)[C@@H]1CCCN1C(=O)OCc1ccccc1 [Example 76, Cbz-Pro-Phe-His Amide of 2(S)-Amino-l-cyclohexyl-3(R), 4(S)-dihydroxy-6-methyl- heptane] | – | 0.5 nM
